“Also recorded” adds a separate entry of the source. Like-named read-outs stand apart in the source and are kept apart here.
Experiments:
[1] = cited from earlier work; for amount that will dissolve in water: in 1 liter of water at 20° C.
MPTP treated mice = assay: MPTP mouse model of Parkinson's disease; type: in vivo, C57BL mice
Protocol: 8- to 10-week-old male C57BL mice will be divided into four groups: control, MPTP treated plus dextrose, and MPTP treated plus MCT. In dextrose treated pups, 0.5 g/kg of dextrose will be administered by oral gavage 2 to 4 hours before MPTP treatment. In MCT treated pups, 0.5 g/kg of MCTs will be administered by oral gavage 2 to 4 hours before MPTP treatment. Each mouse will then be randomly assigned to receive four intraperitoneal injections of either MPTP (18 mg/kg of free base in saline) or saline at 2-hour intervals. Mice will subsequently be tested for motor performance on a rotarod. The rotarod will consist of four rotating rods of 3 cm diameter in separated compartments. Seven days after MPTP or saline injections the mice will be first pretrained three times (1 hour apart) using an accelerating mode. After the training sessions, the time on the rod will be recorded for successive rotational speeds, and the overall rod performance (ORP) for each mouse calculated.
Seven days after the last MPTP injection, mice will be killed and their brain tissue processed for immunohistochemical studies to examine levels of oxidative stress and effects of MPTP treatment. Cell fractions from the biopsied tissue will be frozen and analyzed for oxidative damage using markers of peroxynitrite, lipid peroxidation and 3-nitrotyrosine. […] In addition mitochondria will be isolated from each group and examined for mitochondrial efficiency.

[2] = system: brain tissue fractions (mitochondrial, P1, cytosolic); assay: Markers of oxidative damage in brain fractions of MCT-fed aged beagle dogs; type: in vivo; conditions: MCT vs control
Protocol: The remaining mitochondria were stored in 10% DMSO at −80° C. and assayed for UCP isoforms by western blot and quantification of oxidative damage in the mitochondrial, P1 and cytosolic fractions. Mitochondria from the biopsied tissue were frozen and analyzed for oxidative damage using markers of peroxynitrite, lipid peroxidation and 3-nitrotyrosine. Markers of Oxidative Damage. The markers of oxidative damage were analyzed using a repeated-measures ANOVA with region (frontal vs. parietal) and fraction (mitochondrial vs. P1 vs. cytosolic) as the within-subject variables and group (control vs. MCT) as the between-subject variable.

[3] = Serum beta-hydroxybutyrate (BHB) levels in aged beagle dogs fed MCTs; type: in vivo
Protocol: Reducing oxidative damage and improving mitochondrial efficiency. Two groups of aged beagle dogs were tested for the effects of feeding MCT on oxidative damage and mitochondrial efficiency. The first group was maintained on MCTs (2 g/kg/day) and the second group on placebo control over a 2-month period. Blood samples were taken over 5 time points to monitor levels of the ketone body, beta-hydroxybutyrate (BHB). After two months of treatment, the dogs were anaesthetized and brain biopsies were collected for mitochondrial analysis. The animals were then euthanized and brain tissue was harvested for further analysis of mitochondrial function and protein levels.
The eight subjects (8-11 years) were divided into two equal sized groups, matched for age and sex. The first group was administered 2 g/kg/day of MCTs, which was added to their maintenance diet, and the other received only the maintenance diet. The test substance was manually added to the dog's normal chow and introduced over three days, such that one-third of the maximum dose was administered on the first day, two-thirds on the second day and the full dose on the third day. The subjects were maintained on the test substance over a two-month period. Blood samples for BHB analysis were taken on: Baseline (Day 0), Day 4, Day 14, Day 28, Biopsy/Euthanasia (Day 56 or 57).
Biopsy procedure. Approximately 30 minutes prior to surgery, a blood sample was taken for BHB analysis and then the animals were pre-medicated with acepromazine. Animals were induced using isoflurane (inhaled) via a facemask. The animal then were intubated and maintained in a deep plane of anaesthesia using isoflurane. […]
Serum BHB levels were assessed at five different time-points: (1) prior to treatment onset (T0), (2) after 4 days of treatment (T1), (3) after 14 days of treatment (T2), (4) after 28 days of treatment (T3), and (5) on the biopsy date (T4). The levels were analyzed using a repeated-measures ANOVA with time-point (T0 vs. T1 vs. T2 vs. T3 vs. T4) as a within-subject variable and group (control vs. MCT) as a between-subject variable.

brain mitochondria = assay: Respiration assays on brain mitochondria isolated from biopsies of MCT-fed aged beagle dogs; type: in vivo; conditions: for respiratory control ratio (RCR), coupling of respiration with ATP production: state III / state IV respiration, treatment vs control
Protocol: On the day of biopsy, the treatment group was administered 2 g/kg of MCTs and the control group was administered an isocaloric solution of sucrose by an oral-gastric tube. Approximately two hours after dosing, the animals were anaesthetized and biopsies were taken from the frontal and parietal lobes. Immediately after removing the biopsy tissue, the animals were euthanized with an injectable euthanizing agent.
Using the biopsied material, brain mitochondria were isolated and the following parameters were assayed in real-time:
Mitochondrial Assays. Mitochondria were isolated using differential centrifugation and released from synaptosomes using a nitrogen cell disrupter (1000 psi for 5 minutes).
The respiration assays were conducted using standard polarography in a sealed, thermostated, stirred chamber containing a Clark-type electrode, which measures oxygen within the chamber. The system was calibrated with oxygen-saturated water, to standardize the quantification of oxygen consumption. The assays were conducted at 37° C.
Once the mitochondria were inserted into the Oxytherm, complex I driven respiration (state II respiration) was measured by adding pyruvate and malate (2.5 and 5 mM). Subsequently, 150 μM ADP was added to induce state III respiration, which measured the rate of active respiration. Oligomycin was added to inhibit ATP synthase and put the mitochondria into state IV respiration. To assess UCP activity, free fatty acids were added. FCCP then was added to completely uncouple the mitochondria by depolarizing the membrane potential, which caused maximum electron transport activity and maximum oxygen consumption. Finally, rotenone was added to inhibit complex I electron transport and succinate was added to measure maximum complex II-driven electron transport and oxygen consumption (complex II-driven respiration). The respiratory control ratio (RCR) was tabulated by dividing state III respiration rates by state IV respiration rates.
The respiration rates that were tabulated on-site were analyzed using repeated-measures ANOVAs. For each measure, brain region (frontal vs. parietal) was the within-subject variable and group (control vs. MCT) was the between-subject variable.

CCCCCC(=O)O [Caproic, caproic acid]
Solubility [1]: 9.7 grams of acid per liter | amount that will dissolve in water [1]: 9.7 grams

CCCCCCCCCCCC(=O)O [Lauric]
Solubility ([1]; water at 20° C.): 0.055 grams of acid per liter

CCCCCCCC(=O)OCC(COC(=O)CCCCCCC)OC(=O)CCCCCCC [MCTs, tri-C8:0 medium chain triglycerides]
motor performance on rotarod (MPTP treated mice; 0.5 g/kg MCTs oral gavage 2 to 4 hours before MPTP): lessen the decline in motor performance | signs of oxidative damage (MPTP treated mice; brain tissue seven days after last MPTP injection): fewer signs of oxidative damage | mitochondrial efficiency (MPTP treated mice; isolated mitochondria): improved mitochondrial efficiency | Lipid oxidation, effect of group ([2]; frontal and parietal, mitochondrial, P1 and cytosolic fractions): no additional significant or marginally significant effects | signs of oxidative damage ([2]; peroxynitrite (protein oxidation), lipid oxidation and 3-nitrotyrosine): decreased signs of oxidative damage; also recorded: decrease oxidative damage | levels of serum BHB ([3]; aged beagle dogs, MCTs 2 g/kg/day for 2 months vs control): increased levels of serum BHB | Serum BHB levels at T4 ([3]; biopsy date (Day 56 or 57), MCT vs control, p=0.012): significantly higher | Serum BHB levels at T3 ([3]; day 28 of treatment, MCT vs control, p=0.041): significantly higher | State III respiration (brain mitochondria; parietal and frontal cortices vs control, group effect p=0.008): more oxygen consumption per minute than the control group | State IV respiration (brain mitochondria; parietal and frontal cortices vs control, marginally significant p=0.067): slightly more oxygen consumption per minute than the control group | Uncoupling Protein (UCP) activity (brain mitochondria; parietal and frontal cortices vs control, marginally significant p=0.086): consumed more oxygen per minute than the control animals | improvement of mitochondrial function by brain region (brain mitochondria; parietal cortex vs frontal cortex): more effective at improving mitochondrial function in the parietal cortex than the frontal cortex | State II respiration (brain mitochondria; parietal cortex, oxygen consumption per minute per mg of tissue vs control, p=0.010): significantly less oxygen consumption | respiratory control ratio (RCR), coupling of respiration with ATP production (brain mitochondria): better coupling of respiration with ATP formation | respiratory control ratio (RCR), coupling of respiration with ATP production (brain mitochondria; listed as MCT): better coupled to ATP production | Complex I-driven respiration (maximum electron transport capacity) (brain mitochondria; vs control, group effect p=0.002): larger maximum electron transport activity than the control group | Complex II-driven respiration (brain mitochondria; vs control, region x group interaction p=0.047, listed as MCT): consumed more oxygen per minute than the control in the parietal cortex; also recorded: no difference

CCCCCCCCCCCCCC(=O)O [Myristic]
Solubility ([1]; water at 20° C.): 0.02 grams of acid per liter

CCCCCCCCCCCCCCCC(=O)O [Palmitic, palmitic acid]
amount that will dissolve in water [1]: 0.007 grams

Reference: patent US20100041751A1, “Method to Reduce Oxidative Damage and Improve Mitochondrial Efficiency” (ACCERA, INC., priority 2005, published 2010)
